{
  "source": "patent US12492169B2",
  "about": "“Aminopyridine compound and application thereof” (priority 2020, dated 2025)",
  "key": {"[1]": {"assay": "Mouse pharmacokinetic evaluation, intraperitoneal injection after oral ABT", "assay_type": "in vivo", "conditions": "ip, female CD-1 mice, 26 mpk, ABT 50 mg/kg orally 2 hours before, plasma", "excerpt": "Experimental Purpose: Using female CD-1 mice as test animals, LC/MS/MS was used to measure the plasma drug concentration at different times after intraperitoneal injection of the test compound. To study the pharmacokinetic behavior of the test compound in mice and evaluate its pharmacokinetic characteristics. Drug preparation: An appropriate amount of sample was weighed and then prepared into a clear or suspended solution. Administration scheme: Two healthy female CD-1 mice were taken, purchased from Beijing Vital River Laboratory Animal Technology Co., Ltd., and given a normal diet. The drug was administered through intraperitoneal injection. Operational steps: 2 hours before administration, 1-aminobenzotriazole (ABT) was orally administered (50 mg/kg, 5 mg/mL in normal saline), and after animal administration, about 30 μL of blood was collected at 0.083, 0.25, 0.5, 1, 2, 4, 8, and 24 hours, and placed in commercially available anticoagulant tubes pre-added with EDTA-K2. The tubes were centrifuged for 10 minutes to separate the plasma, and the plasma was stored at −60° C. The content of the target compound in the plasma sample was determined by LC/MS/MS method, and the experimental results are shown in Table 3."}, "[2]": {"system": "Aspergillus fumigatus ATCC-MYA-4609", "assay": "Minimum effective concentration (MEC) test against fungi", "assay_type": "cell-based", "conditions": "change of hyphae morphology by microscope, 48 hours, three independent experiments", "description": "(§1) To test the minimum inhibitory concentration (MIC) and minimum effective concentration (MEC) of the drug against fungi.\n(§2) Aspergillus fumigatus ATCC-MYA-4609; Aspergillus flavus ATCC MYA-1004\n(§3) Test medium: RPMI1640 (containing 0.165 M MOPS, pH7.0)\n(§4) On the day of the experiment, the compound in the bottle was dissolved in 100% DMSO to a stock solution concentration of 6.24 mg/mL. Then, the mixture was 10-fold diluted with DMSO to 0.624 mg/mL for use.\n(§5) A 2-fold gradient dilution of the compound solution (0.624 mg/mL) was performed using DMSO on a 96-microwell plate (V-bottom) to obtain 100× working solutions (wells 1 to 11). 624, 312, 156, 78, 39, 20, 10, 5, 2.5, 1.25, 0.625 μg/mL. 100% DMSO was used as a positive control (well 12). This was the compound stock plate.\n(§6) Aspergillus fumigatus ATCC-MYA-4609; Aspergillus flavus ATCC MYA-1004 frozen at −80° C. were streaked on SDA plates and incubated aerobically in a 30±2° C. incubator for 6 days.\n(§7) For strains Aspergillus fumigatus ATCC MYA-4609; Aspergillus flavus ATCC MYA-1004, after taking out the plate, 3 mL of 0.9% normal saline containing 0.1% Tween20 was added to the plate and the spores were gently collected. The spores were counted with a hemocytometer and the spore suspension was adjusted to about 5×10^6 spores/mL. Then the spore suspension was diluted to 0.8 to 1×10^5 spores/mL with a test medium.\n(§8) 2 μL of 100× working solution from the compound stock plate (prepared in 3.1) was transferred to a round-bottomed 96-well plate (containing 98 μL of test medium), and then 100 μL of fungus inoculum (prepared in 3.2) was added to each well to obtain a MIC test plate. Therefore, the final test concentrations of the compounds were 6.24, 3.12, 1.56, 0.78, 0.39, 0.20, 0.10, 0.05, 0.025, 0.0125, 0.006 μg/mL. 1% DMSO was used as a growth control.\n(§9) For mold strains Aspergillus fumigatus ATCC-MYA-4609 and Aspergillus flavus ATCC MYA-1004, all test plates were incubated aerobically in a 35±° C. incubator for 48 hours.\n(§10) After incubation, according to the criteria in Table 1 below, the test plate was observed by eye or microscope to determine the MIC (g/mL) and MEC (g/mL) of the test compound against yeast and mold."}, "[3]": {"system": "Aspergillus flavus ATCC MYA-1004", "assay": "Minimum effective concentration (MEC) test against fungi", "assay_type": "cell-based", "conditions": "change of hyphae morphology by microscope, 48 hours, three independent experiments", "description": "as §1, §2, §3, §4, §5, §6, §7, §8, §9, §10"}, "[4]": {"assay": "Pharmacokinetic evaluation in dogs (IV, PO)", "assay_type": "in vivo, beagle dogs", "conditions": "beagle, plasma, Dog", "excerpt": "(§11) Experimental Purpose: To evaluate the druggability of the compounds by measuring its pharmacokinetic properties in different animal species.\n(§12) Experimental materials: CD-1 mice, Sprague-Dawley strain rats, beagle dogs, and crab-eating macaques.\n(§13) Drug preparation: An appropriate amount of sample was weighed and then prepared into a clear or suspended solution.\n(§14) Experimental procedure: The animal pharmacokinetic characteristics after intravenous injection and oral administration of the compound were tested using a standard protocol. The candidate compound was prepared as a clear solution (for intravenous injection) or a homogeneous suspension (for oral administration) during the experiment and administered to the animals as a single dose. Whole blood samples were collected at 0.083, 0.25, 0.5, 1, 2, 4, 8, and 24 hours, centrifuged at 3200 g for 10 minutes to separate the supernatant to obtain plasma samples. The plasma concentration was quantitatively analyzed by LC-MS/MS analysis method and pharmacokinetic parameters were calculated, such as peak concentration, peak time, clearance rate, half-life, area under the drug-time curve, etc."}, "[5]": {"assay": "Pharmacokinetic evaluation in rats (IV, PO)", "assay_type": "in vivo, Sprague-Dawley strain rats", "conditions": "Sprague-Dawley, plasma, Rat", "excerpt": "as §11, §12, §13, §14"}, "[6]": {"system": "Candida albicans ATCC MYA-4788", "assay": "Mouse Candida vaginal infection model", "assay_type": "in vivo", "conditions": "female C3H/NeH mice, 20 mpk intraperitoneally once a day for 3 days after ABT, CFU at 96 hours of infection, P<0.001", "description": "• Experimental animals: female C3H/NeH mice, 6 to 8 weeks old, 19 to 21 g, n=5 to 6; • microbial pathogen: Candida albicans ATCC MYA-4788; • inoculation level and route: 5.0E+05 CFU/mouse, infected by vaginal instillation; • test sample: WX004: 20 mpk\nTreatment: ABT was administered orally 22 hours after infection, and the test compound was injected intraperitoneally 24 hours after infection. In this experiment, the Vehicle group and the test compound group were set up, with a total of 3 days of administration, once a day, and a administration volume of 10 mL/kg.\nObservation indicators: After 96 hours of infection in each group of mice, the vaginal tissue and vaginal lavage fluid of the mice were taken for CFU counting. Plasma samples were collected at 0.25 h, 0.5 h, 1 h, 2 h, 4 h, 8 h, and 24 h after the last administration."}},
  "note": "Where “and” joins values, the source holds several entries; their conditions need not be identical. Equal entries are not always repeated.",
  "data": [
    {"smiles": "Nc1ccc(C#CCc2ccc(COc3ccccn3)cc2)cn1", "note": "[WX004]", "values": [
      {"measurement": "AUC", "setting": "[1]; read-out: Concentration Integral AUC", "result": 305, "unit": "µM·h"},
      {"measurement": "Cmax", "setting": "[1]; read-out: Peak Concentration Cmax", "result": 19, "unit": "µM"},
      {"measurement": "Tmax", "setting": "[1]; read-out: Peak Time Tmax", "result": 1, "unit": "h"},
      {"measurement": "MEC", "setting": "[2]", "result": 0.1, "unit": "µg/mL"},
      {"measurement": "MEC", "setting": "[3]", "result": "0.39 µg/mL and 0.78 µg/mL"},
      {"measurement": "AUC", "setting": "[4]; 1 mg/kg, IV, 1 mpk", "result": 2.8, "unit": "µM·h"},
      {"measurement": "Vd", "setting": "[4]; 1 mg/kg, IV, 1 mpk", "result": 2.8, "unit": "L/kg"},
      {"measurement": "clearance", "setting": "[4]; 1 mg/kg, IV, 1 mpk", "result": 21, "unit": "mL/min/kg"},
      {"measurement": "half-life", "setting": "[4]; 1 mg/kg, IV, 1 mpk", "result": 2.5, "unit": "h"},
      {"measurement": "AUC", "setting": "[4]; 10 mg/kg, PO, 10 mpk", "result": 14, "unit": "µM·h"},
      {"measurement": "Cmax", "setting": "[4]; 10 mg/kg, PO, 10 mpk", "result": 6.5, "unit": "µM"},
      {"measurement": "Tmax", "setting": "[4]; 10 mg/kg, PO, 10 mpk", "result": 0.75, "unit": "h"},
      {"measurement": "bioavailability", "setting": "[4]; 10 mg/kg, PO, 10 mpk", "result": 51, "unit": "%"},
      {"measurement": "AUC", "setting": "[5]; 3 mg/kg, IV, 3 mpk", "result": 22, "unit": "µM·h"},
      {"measurement": "Vd", "setting": "[5]; 3 mg/kg, IV, 3 mpk", "result": 1.8, "unit": "L/kg"},
      {"measurement": "clearance", "setting": "[5]; 3 mg/kg, IV, 3 mpk", "result": 7, "unit": "mL/min/kg"},
      {"measurement": "half-life", "setting": "[5]; 3 mg/kg, IV, 3 mpk", "result": 4, "unit": "h"},
      {"measurement": "AUC", "setting": "[5]; 30 mg/kg, PO, 30 mpk", "result": 95, "unit": "µM·h"},
      {"measurement": "Cmax", "setting": "[5]; 30 mg/kg, PO, 30 mpk", "result": 10, "unit": "µM"},
      {"measurement": "Tmax", "setting": "[5]; 30 mg/kg, PO, 30 mpk", "result": 1.5, "unit": "h"},
      {"measurement": "bioavailability", "setting": "[5]; 30 mg/kg, PO, 30 mpk", "result": 45, "unit": "%"},
      {"measurement": "reduction of fungal load in the vaginal lavage fluid compared with the Vehicle group", "setting": "[6]", "result": 2.5, "unit": "lg"},
      {"measurement": "reduction of fungal load in the vaginal tissue compared with the Vehicle group", "setting": "[6]", "result": 2.7, "unit": "lg"}
    ]}
  ]
}
